The text below walks through data of ChEMBL document CHEMBL1155503, “Synthesis of neurotensin(8-13)-phosphopeptide heterodimers via click chemistry” (Bioorg Med Chem Lett, 2010).

Where a SMILES comes first, the peptide text is derived from it.

The target in the assay is Neurotensin receptor type 1 (Homo sapiens, UniProt P30989). Description: Displacement of [3H]neurotensin from NTR1 in human HT29 cells after 30 mins by liquid scintillation spectrometry. The conditions noted are these: for Activity: HT-29. In kind it is cell-based. In general terms: In a radioligand displacement assay an active substance lowers the binding of a labelled ligand.
Sequence of Neurotensin receptor type 1 (P30989 whole entry): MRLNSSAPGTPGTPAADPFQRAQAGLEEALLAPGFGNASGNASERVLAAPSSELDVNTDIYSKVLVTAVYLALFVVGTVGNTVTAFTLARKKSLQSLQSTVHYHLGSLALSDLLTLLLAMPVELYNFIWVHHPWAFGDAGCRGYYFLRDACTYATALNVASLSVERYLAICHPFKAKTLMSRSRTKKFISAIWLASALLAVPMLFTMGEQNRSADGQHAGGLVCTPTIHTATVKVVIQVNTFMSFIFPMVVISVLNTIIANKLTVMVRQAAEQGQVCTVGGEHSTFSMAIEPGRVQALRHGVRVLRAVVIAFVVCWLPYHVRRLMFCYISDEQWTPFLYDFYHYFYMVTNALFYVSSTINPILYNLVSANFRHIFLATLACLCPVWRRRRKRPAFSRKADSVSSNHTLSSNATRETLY

With `CSCC[C@H](NC(=O)CCCCn1cc(CCCC(=O)N[C@@H](CCCNC(=N)N)C(=O)N[C@@H](CCCNC(=N)N)C(=O)N2CCC[C@H]2C(=O)N[C@@H](Cc2ccc(O)cc2)C(=O)N[C@@H](CC(C)C)C(=O)N[C@@H](CC(C)C)C(=O)O)nn1)C(=O)N[C@@H](CCC(N)=O)C(=O)N[C@@H](CO)C(=O)N[C@H](C(=O)N1CCC[C@H]1C(=O)N[C@@H](CC(C)C)C(=O)O)[C@@H](C)O`, the Activity entry is “Dose-dependent effect”.
By IC50 is commonly meant the concentration at which inhibition is half-maximal. Lower therefore signals greater potency in that assay. On to `CC(C)C[C@H](NC(=O)[C@H](CC(C)C)NC(=O)[C@H](Cc1ccc(O)cc1)NC(=O)[C@@H]1CCCN1C(=O)[C@H](CCCNC(=N)N)NC(=O)[C@@H](N)CCCNC(=N)N)C(=O)O` (H-RRPYLL-OH), for which the IC50 came out at 0.001 µM.
Regarding `CSCC[C@H](NC(=O)CCCCn1cc(CCCC(=O)N[C@@H](CCCNC(=N)N)C(=O)N[C@@H](CCCNC(=N)N)C(=O)N2CCC[C@H]2C(=O)N[C@@H](Cc2ccc(O)cc2)C(=O)N[C@@H](CC(C)C)C(=O)N[C@@H](CC(C)C)C(=O)O)nn1)C(=O)N[C@@H](CCC(N)=O)C(=O)N[C@@H](CO)C(=O)N[C@H](C(=O)N1CCC[C@H]1C(=O)N[C@@H](CC(C)C)C(=O)O)[C@@H](C)OP(=O)(O)O`, the IC50 is 8.3 µM and the Activity entry is “Dose-dependent effect”.
`CSCC[C@H](NC(=O)CCCCn1cc(CCCC(=O)N[C@@H](CCCN=C(N)N)C(=O)N[C@@H](CCCN=C(N)N)C(=O)N2CCC[C@H]2C(=O)N[C@@H](Cc2ccc(O)cc2)C(=O)N[C@@H](CC(C)C)C(=O)N[C@@H](CC(C)C)C(=O)O)nn1)C(=O)N[C@@H](CCC(N)=O)C(=O)N[C@@H](CO)C(=O)N[C@H](C(=O)N1CCC[C@H]1C(=O)N[C@@H](CC(C)C)C(=O)O)[C@@H](C)O` came in with an IC50 of 0.7 µM.
